Among the data in patent US11285156B2, “Substituted piperazines as KRAS G12C inhibitors” (Amgen Inc., priority 2018, dated 2022) are IC50 values, retold here.

In this assay the target is GDP-bound KRAS protein (aa 1-169), containing both G12C and C118A amino acid substitutions (Homo sapiens (Human), UniProt P01116, C118A/G12C). The experiment in a line: Coupled nucleotide exchange assay (SOS-mediated nucleotide exchange, AlphaScreen). The format is biochemical. The conditions noted are these: read-out: Coupled exchange IC50 (5 min; μM); 5 min compound pre-incubation. (Alpha assays give light when donor and acceptor beads are brought close together.)
Chain of GDP-bound KRAS protein (aa 1-169), containing both G12C and C118A amino acid substitutions (P01116 other isoform, or with tags, fused parts or gaps G12C/C118A): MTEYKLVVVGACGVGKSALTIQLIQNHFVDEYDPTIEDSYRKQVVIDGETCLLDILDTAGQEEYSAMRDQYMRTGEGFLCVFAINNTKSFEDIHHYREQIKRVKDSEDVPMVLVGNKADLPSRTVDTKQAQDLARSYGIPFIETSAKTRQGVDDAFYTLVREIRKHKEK
For the molecule `C=CC(=O)N1C[C@H](C)N(c2nc(=O)n(-c3ccccc3P(C)(C)=O)c3nc(-c4ccccc4F)c(Cl)cc23)C[C@H]1C` [Example 55-55, 6-Chloro-1-(2-dimethylphosphorylphenyl)-4-[(2S,5R)-2,5-dimethyl-4-prop-2-enoyl-piperazin-1-yl]-7-(2-fluorophenyl)pyrido[2,3-d]pyrimidin-2-one], the IC50 came to 3.14 µM.
As for `C=CC(=O)N1C[C@H](C)N(c2nc(=O)n(-c3c(C(C)C)ncnc3C(C)C)c3nc(-c4ccccc4C#N)c(Cl)cc23)C[C@H]1C` [Example 100-3, 2-[6-Chloro-1-(4,6-diisopropylpyrimidin-5-yl)-4-[(2S,5R)-2,5-dimethyl-4-prop-2-enoyl-piperazin-1-yl]-2-oxo-pyrido[2,3-d]pyrimidin-7-yl]benzonitrile], the IC50 was found to be 0.763 µM.
For `C=CC(=O)N1CCN(c2nc(=O)n(CC(C)(C)C)c3nc(Cl)c(Cl)cc23)CC1` [Example 100-5, 6,7-Dichloro-1-(2,2-dimethylpropyl)-4-(4-prop-2-enoylpiperazin-1-yl)pyrido[2,3-d]pyrimidin-2-one] the value was 58.3 µM; for `C=CC(=O)N1CCN(c2nc(=O)n(CC(C)(C)C)c3ncccc23)CC1` [Example 100-6, 1-(2,2-dimethylpropyl)-4-(4-prop-2-enoylpiperazin-1-yl)pyrido[2,3-d]pyrimidin-2-one], 250 µM; for `C=CC(=O)N1C[C@H](C)N(c2nc(=O)n(-c3c(C(C)C)ncnc3C(C)C)c3nc(-c4ccccc4S(C)(=O)=O)c(Cl)cc23)C[C@H]1C` [Example 100-7, 6-Chloro-1-(4,6-diisopropylpyrimidin-5-yl)-4-[(2S,5R)-2,5-dimethyl-4-prop-2-enoyl-piperazin-1-yl]-7-(2-methylsulfonylphenyl) pyrido[2,3-d]pyrimidin-2-one], 5.1 µM.
Turning to `CC(C)c1ncnc(C(C)C)c1-n1c(=O)nc(N2CCN(C(=O)/C=C/CN(C)C)C[C@@H]2C)c2cc(Cl)c(-c3ccccc3F)nc21` [Example 102-2, 6-Chloro-1-(4,6-diisopropylpyri-midin-5-yl)-4-[(2S)-4-[(E)-4-(dimethylamino)but-2-enoyl]-2-methyl-piperazin-1-yl]-7-(2-fluorophenyl) pyrido[2,3-d]pyrimidin-2-one], the IC50 was 1.23 µM.
Regarding `C=CC(=O)N1C[C@H](C)N(c2nc(=O)n(-c3c(C)cc(P(C)(C)=O)cc3C(C)C)c3nc(-c4ccccc4F)c(Cl)cc23)C[C@H]1C` [Example 102-7, 6-Chloro-1-(4-dimethylphosphoryl-2-isopropyl-6-methyl-phenyl)-4-[(2S,5R)-2,5-dimethyl-4-prop-2-enoyl-piperazin-1-yl]-7-(2-fluorophenyl) pyrido[2,3-d]pyrimidin-2-one], the IC50 amounted to 0.376 µM.
For `C=CC(=O)N1C[C@H](C)N(c2nc(=O)n(-c3c(C(C)C)ccnc3C(=O)N(C)C)c3nc(-c4ccccc4F)c(Cl)cc23)C[C@H]1C` [Example 102-8, 3-[6-Chloro-4-[(2S,5R)-2,5-dimethyl-4-prop-2-enoyl-piperazin-1-yl]-7-(2-fluorophenyl)-2-oxo-pyrido[2,3-d]pyrimidin-1-yl]-4-isopropyl-N,N-dimethyl-pyridine-2-carboxamide], the IC50 was determined as 184 µM.
Consider `C=CC(=O)N1C[C@H](C)N(c2nc(=O)n(-c3c(C)ccnc3C(C)C)c3nc(-c4ccccc4F)c(Cl)nc23)C[C@H]1C` [Example 106-6, 6-Chloro-4-[(2S,5R)-2,5-dimethyl-4-prop-2-enoyl-piperazin-1-yl]-7-(2-fluorophenyl)-1-(2-isopropyl-4-methyl-3-pyridyl)pteridin-2-one], for which the IC50 stood at 0.322 µM.
For the molecule `C=CC(=O)N1C[C@@H](C)N(c2nc(=O)n(-c3c(C)ccnc3C(C)C)c3nc(-c4ccccc4F)c(Cl)nc23)[C@@H](C)C1` [Example 106-7, 6-Chloro-4-[(2R,6S)-2,6-dimethyl-4-prop-2-enoyl-piperazin-1-yl]-7-(2-fluorophenyl)-1-(2-isopropyl-4-methyl-3-pyridyl)pteridin-2-one], the IC50 was found to be 0.301 µM.
`C=CC(=O)N1C[C@@H](C)N(c2nc(=O)n(-c3c(C)ccnc3C(C)C)c3nc(-c4ccccc4F)c(Cl)nc23)[C@@H](C)C1` [Example 106-7-1, 6-Chloro-4-[(2R,6S)-2,6-dimethyl-4-prop-2-enoyl-piperazin-1-yl]-7-(2-fluorophenyl)-1-(2-isopropyl-4-methyl-3-pyridyl)pteridin-2-one]: the IC50 is 1.98 µM.
The figure for `C=CC(=O)N1CCN(c2nc(=O)n(CC(C)(C)C#N)c3nc(-c4ccccc4F)c(Cl)cc23)CC1` [Example 106-10, 3-[6-Chloro-7-(2-fluorophenyl)-2-oxo-4-(4-prop-2-enoylpiperazin-1-yl)pyrido[2,3-d]pyrimidin-1-yl]-2,2-dimethyl-propanenitrile] is 12.1 µM; for `CC#CC(=O)N1C[C@H](C)N(c2nc(=O)n(-c3c(C)ccnc3C(C)C)c3nc(-c4ccccc4F)c(F)cc23)C[C@H]1C` [Example 119-1, 4-((2S,5R)-4(But-2-ynoyl)-2,5-dimethylpiperazin-1-yl)-6-fluoro-7-(2-fluorophenyl)-1-(2-isopropyl-4-methylpyridin-3-yl)pyrido[2,3-d]pyrimidin-2(1H)-one] it is 24 µM; for `Cc1ccnc(C(C)C)c1-n1c(=O)nc(N2C[C@@H](C)N(C(=O)C#CCN(C)C)C[C@@H]2C)c2cc(F)c(-c3ccccc3F)nc21` [Example 119-2, 4-((2S,5R)-4-(4-(Dimethylamino)but-2-ynoyl)-2,5-dimethylpiperazin-1-yl)-6-fluoro-7-(2-fluorophenyl)-1-(2-isopropyl-4-methylpyridin-3-yl)pyrido[2,3-d]pyrimidin-2(1H)-one] it is 0.33 µM.
In the case of `C=CC(=O)N1C[C@H](C)N(c2nc(=O)n(-c3c(N(C)C)ccnc3C(C)C)c3nc(-c4c(F)cccc4NC(=O)C4CC4)c(Cl)cc23)C[C@H]1C` [Example 122-3, N-[2-[6-Chloro-1-[4-(dimethylamino)-2-isopropyl-3-pyridyl]-4-[(2S,5R)-2,5-dimethyl-4-prop-2-enoyl-piperazin-1-yl]-2-oxo-pyrido[2,3-d]pyrimidin-7-yl]-3-fluoro-phenyl]cyclopropanecarboxamide], the IC50 came out at 0.503 µM.
On to `C=CC(=O)N1C[C@H](C)N(c2nc(=O)n(-c3c(C(C)C)ccnc3C(C)C)c3nc(-c4ccccc4C)c(F)cc23)C[C@H]1C` [Example 124-5, 1-(2,4-Diisopropyl-3-pyridyl)-4-[(2S,5R)-2,5-dimethyl-4-prop-2-enoyl-piperazin-1-yl]-6-fluoro-7-(o-tolyl)pyrido[2,3-d]pyrimidin-2-one], for which the IC50 was 0.439 µM.
Regarding `C=CC(=O)N1C[C@H](C)N(c2nc(=O)n(-c3c(CN(CC)C(C)C)ccnc3C(C)C)c3nc(-c4ccccc4C(C)C)c(Cl)cc23)C[C@H]1C` [Example 141-2, 6-Chloro-4-[(2S,5R)-2,5-dimethyl-4-prop-2-enoyl-piperazin-1-yl]-1-[4-[[ethyl(isopropyl)amino]methyl]-2-isopropyl-3-pyridyl]-7-(2-isopropylphenyl)pyrido[2,3-d]pyrimidin-2-one], the IC50 is 0.279 µM.
The figure for `C=CC(=O)N1C[C@H](C)N(c2nc(=O)n3c4nc(c(Cl)cc24)-c2ccccc2C/C=C\Cc2cccc(C(C)C)c2-3)C[C@H]1C` [Example 146-1, (F)-(9Z)-19-Chloro-22-((2S,5R)-2,5-dimethyl-4-(2-propenoyl)-1-piperazinyl)-3-(2-propanyl)-1,23,26-triazapentacyclo[16.6.2.0˜2,7˜.0˜12,17˜0˜21,25-]hexacosa-2,4,6,9,12,14,16,18,20,22,25-undecaen-24-one and (F)-19-chloro-22-((2S,5R)-2,5-dimethyl-4-(2-propenoyl)-1-piperazinyl)-3-(2-propanyl)-1,23,26-triazapentacyclo[6.6.2.0˜2,7˜.0˜12,17˜.0˜21,25˜]hexacosa-2,4,6,9,12,14,16,18,20,22,25-undecaen-24-one] is 12.8 µM.
With `C=CC(=O)N1C[C@H](C)N(c2nc(=N)n(CC(C)(C)C)c3nc(-c4ccccc4F)c(Cl)cc23)C[C@H]1C` [Example 150, 1-((2R,5S)-4-(6-Chloro-7-(2-fluorophenyl)-2-imino-1-neopentyl-1,2-dihydropyrido[2,3-d]pyrimidin-4-yl)-2,5-dimethylpiperazin-1-yl)prop-2-en-1-one], the IC50 was 0.313 µM.
`C=CC(=O)N1C[C@H](C)N(c2n/c(=N\C)n(CC(C)(C)C)c3nc(-c4ccccc4F)c(Cl)cc23)C[C@H]1C` [Example 151, 1-((2R,5S)-4-((Z)-6-Chloro-7-(2-fluorophenyl)-2-(methylimino)-1-neopentyl-1,2-dihydropyrido[2,3-d]pyrimidin-4-yl)-2,5-dimethylpiperazin-1-yl)prop-2-en-1-one 2,2,2-trifluoroacetate]: the IC50 came out at 0.348 µM.
As to `C=CC(=O)N1C[C@H](C)N(c2nc(=O)n(-c3ccccc3C(C)C)c3c2CCN(c2ccccc2)C3)C[C@H]1C` [Example 152, 4-((2S,5R)-4-Acryloyl-2,5-dimethylpiperazin-1-yl)-1-(2-isopropylphenyl)-7-phenyl-5,6,7,8-tetrahydropyrido[3,4-d]pyrimidin-2(1H)-one], the half-maximal inhibitory concentration (IC50) came out at 132 µM.
In the case of `C=CC(=O)N1C[C@H](C)N(c2nc(=O)n(-c3c(C(C)C)nc(CC)nc3C(C)C)c3nc(-c4ccccc4F)c(Cl)cc23)C[C@H]1C` [Example 169, 6-Chloro-4-[(2S,5R)-2,5-dimethyl-4-prop-2-enoyl-piperazin-1-yl]-1-(2-ethyl-4,6-diisopropyl-pyrimidin-5-yl)-7-(2-fluorophenyl)pyrido[2,3-d]pyrimidin-2-one], the IC50 was determined as 0.55 µM.
With `C=CC(=O)N1C[C@H](C)N(c2nc(=O)n(-c3c(C(C)C)nc(-c4ccoc4)nc3C(C)C)c3nc(-c4ccccc4F)c(Cl)cc23)C[C@H]1C` [Example 171, 6-Chloro-4-[(2S,5R)-2,5-dimethyl-4-prop-2-enoyl-piperazin-1-yl]-7-(2-fluorophenyl)-1-[2-(3-furyl)-4,6-diisopropyl-pyrimidin-5-yl]pyrido[2,3-d]pyrimidin-2-one], the IC50 stood at 0.206 µM.

What is called IC50 is the point on the concentration scale where inhibition reaches its midpoint.
